Source: PMC5730575, “A Simple Platform for the Rapid Development of Antimicrobials” (Scientific Reports, 2017)

What was measured:
S. epidermidis = test: 100-peptide microarray binding of S. epidermidis; conditions: S. epidermidis labeled with CTO and AF647, 106 CFU/mL
[1] = system: A/CA/7/2009 H1N1 pdm09 hemagglutination of turkey red blood cells; test: Hemagglutination inhibition (HAI) assay; type: biochemical, influenza A/CA/07/2009 pdm09 H1N1; conditions: peptides tested 50 µM to 1.76 µM, 2 fold dilutions; 1 HAU virus; 0.5% turkey RBC; non-inhibitors: even at 50 µM
A/CA/07/2009 pdm09 H1N1 = test: 100-peptide microarray binding of pdm09 H1N1; set-up: species or system influenza A/CA/07/2009 pdm09 H1N1; conditions: two color fluorescent labeling (AF555/AF647); six replicate spots per peptide; versus background in empty spots, p < 0.01
[2] = cited from earlier work

| Substance | binding of S. epidermidis on the peptide array (S. epidermidis) | inhibition of hemagglutination by pdm09 of red blood cells (peptides) [1] | binding of pdm09 H1N1 on the peptide array (A/CA/07/2009 pdm09 H1N1) | elimination half-life [2] [h] |
| --- | --- | --- | --- | --- |
| CSGAMHGPATTRPAIGRYPW [p52] | positives binders |  |  |  |
| CSGQFSAKKYWEIKPMDYWK [p204] |  | did not prevent hemagglutination | bound |  |
| CSGEWRQQKMMPKSAPNKPQ [p94] |  |  | did not |  |
| CSGHNIYAQYGYPYDHMYEG [p125] |  | inhibited hemagglutination |  |  |
| CSGAVNYQEVFNKARMKKKR [p58] |  | did not prevent hemagglutination | bound |  |
| enfuvirtide |  |  |  | 3.8 |
| CSGSFNQEYFPYPMIDYLKK [p227] |  | inhibited hemagglutination |  |  |
| CSGKSQEIGDPDDIWNQMKW [p149] |  | inhibited hemagglutination |  |  |
| CSGFRKHPWKHPRHKFHKPW [p104] | positives binders |  |  |  |
| CSGFWPRKHPFRWKHPRPKH [p107] |  | did not prevent hemagglutination | bound |  |
| CSGYYDVHMGPMNDNHYFKK [p228] |  | did not prevent hemagglutination | bound |  |
| CSGYNWSRKKHKYYPRKIAY [p43] |  | did not prevent hemagglutination | bound |  |
| CSGKVHRWKYHSRQNYTYRP [p151] |  | did not prevent hemagglutination | bound |  |
| CSGNETAPDNTYRYKQSAQK [p174] |  | did not prevent hemagglutination | bound |  |
